Tests used:
[1] = target: T1, Shp2 PTP (Homo sapiens, UniProt Q06124); experiment: Shp2 PTP inhibition assay; assay type: biochemical; conditions: for Inhibition of Shp2 PTP activity at the highest concentration tested: 300 µM
T1 sequence (Q06124 1-593): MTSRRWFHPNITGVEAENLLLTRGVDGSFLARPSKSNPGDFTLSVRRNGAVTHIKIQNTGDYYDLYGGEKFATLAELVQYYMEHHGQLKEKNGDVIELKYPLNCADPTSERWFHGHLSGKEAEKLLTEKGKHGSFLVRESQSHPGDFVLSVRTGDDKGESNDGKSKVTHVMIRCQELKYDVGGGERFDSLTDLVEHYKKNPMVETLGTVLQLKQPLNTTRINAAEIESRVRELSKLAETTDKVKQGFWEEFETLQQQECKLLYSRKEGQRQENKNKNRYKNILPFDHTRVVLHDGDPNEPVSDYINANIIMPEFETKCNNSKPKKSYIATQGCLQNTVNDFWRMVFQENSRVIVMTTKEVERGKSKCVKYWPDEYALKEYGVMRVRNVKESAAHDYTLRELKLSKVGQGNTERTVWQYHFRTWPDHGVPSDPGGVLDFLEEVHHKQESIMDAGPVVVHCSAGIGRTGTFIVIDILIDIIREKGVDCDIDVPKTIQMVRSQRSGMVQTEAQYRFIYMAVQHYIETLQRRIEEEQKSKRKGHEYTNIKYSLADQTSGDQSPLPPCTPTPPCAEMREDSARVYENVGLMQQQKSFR

[2] = target: T1, Shp2 PTP; experiment: Enzyme kinetic assay using DiFMUP as the substrate; assay type: biochemical
[3] = target: T2, Shp2 (Homo sapiens, UniProt Q06124); experiment: Surface plasmon resonance; assay type: binding; conditions: SPR
T2 sequence (Q06124 1-593): T1 sequence (Q06124 1-593)

Question: How did the “Inhibition of Shp2 PTP activity at the highest concentration tested” value (from here on “Inhibition of Shp2 PTP activity”) [1] turn out when C[C@]12CC[C@@H]3c4ccc(O)cc4CC[C@H]3[C@@H]1CC[C@@H]2O [Estradiol, estradiol] was run?
Answer: did not inhibit

Question: C[C@]12CC[C@@H]3c4ccc(OC(=O)N(CCCl)CCCl)cc4CC[C@H]3[C@@H]1CC[C@@H]2O [Estramustine, estramustine] was tested. Which “Inhibition of Shp2 PTP activity” value [1] did it give?
Answer: did not inhibit

Question: With C[C@]12CC[C@@H]3c4ccc(OC(=O)N(CCCl)CCCl)cc4CC[C@H]3[C@@H]1CC[C@@H]2OP(=O)(O)O [Estramustine phosphate, estramustine phosphate] as the compound, how does the Ki [2] read?
Answer: 22.8 µM

Question: And the “Inhibition kinetics (best fit)” value ([2]; DiFMUP substrate)?
Answer: mixed inhibition kinetics

Question: And the “association rate constant ka” value [3]?
Answer: 2200 M⁻¹ s⁻¹

Question: Which “Inhibition of Shp2 PTP activity” value [1] does the source give for COc1ccc2c(c1)CC[C@@H]1[C@@H]2CC[C@@]2(C)[C@H]1CC[C@@]21CCNP(=O)(N(CCCl)CCCl)O1 (stereo partly shown) [NSC233064] here?
Answer: did not inhibit

Question: With CC1=C(O)C(=O)C=C2C1=CC=C1[C@@]2(C)CC[C@@]2(C)[C@@H]3C[C@@H](C)C(=O)C[C@]3(C)CC[C@]12C [Maitenin] as the compound, how does the “Fold less potent than celastrol in Shp2 inhibition” value [1] read?
Answer: 18 fold

From publication PMC3034307 (Bioorganic & medicinal chemistry letters, 2010)
